Results reported in PMC9090415, “Discovery of small molecule inhibitors of Plasmodium falciparum apicoplast DNA polymerase” (Journal of Enzyme Inhibition and Medicinal Chemistry, 2022).

Molecular target: T1, bacteriophage T4 DNA polymerase (Enterobacteria phage T4, UniProt P04415)
T1 construct: made in house
T1 sequence (P04415 1-898): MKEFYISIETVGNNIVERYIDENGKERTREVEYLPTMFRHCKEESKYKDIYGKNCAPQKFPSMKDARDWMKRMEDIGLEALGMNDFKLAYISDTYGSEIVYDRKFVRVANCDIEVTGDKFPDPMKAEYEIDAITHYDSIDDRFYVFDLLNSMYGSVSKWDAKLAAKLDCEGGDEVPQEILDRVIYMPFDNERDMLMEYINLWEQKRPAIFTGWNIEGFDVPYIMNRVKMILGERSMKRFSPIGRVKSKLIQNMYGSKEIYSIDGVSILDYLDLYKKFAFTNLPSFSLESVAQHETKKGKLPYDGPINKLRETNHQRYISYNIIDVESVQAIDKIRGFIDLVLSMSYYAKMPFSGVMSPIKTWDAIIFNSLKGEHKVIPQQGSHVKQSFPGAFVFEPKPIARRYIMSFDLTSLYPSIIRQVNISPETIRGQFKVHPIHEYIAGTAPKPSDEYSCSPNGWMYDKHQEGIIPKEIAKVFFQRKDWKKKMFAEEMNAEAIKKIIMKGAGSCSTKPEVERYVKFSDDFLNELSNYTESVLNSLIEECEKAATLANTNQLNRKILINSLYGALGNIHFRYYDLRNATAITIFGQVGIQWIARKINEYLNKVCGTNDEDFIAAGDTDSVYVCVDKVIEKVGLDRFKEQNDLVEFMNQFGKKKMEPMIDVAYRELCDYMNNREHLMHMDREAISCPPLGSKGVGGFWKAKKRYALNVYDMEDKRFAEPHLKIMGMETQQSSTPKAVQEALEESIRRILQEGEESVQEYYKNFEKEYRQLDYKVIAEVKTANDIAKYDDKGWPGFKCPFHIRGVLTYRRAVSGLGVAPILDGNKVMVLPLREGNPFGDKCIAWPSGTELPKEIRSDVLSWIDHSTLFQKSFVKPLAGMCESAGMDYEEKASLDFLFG
Assay: Counter-screen against bacteriophage T4 DNA polymerase
Type: biochemical
Details: for % inhibition T4 10' 2.5 / % inhibition T4 10' 5 / % inhibition T4 10' 10 / % inhibition T4 10' 20 / % inhibition T4 10' 40 / % inhibition T4 10' 80: read at 10'; for % inhibition T4 10' 2.5 / % inhibition T4 70' 2.5 / % inhibition T4 130' 2.5 / % inhibition T4 40' 2.5 / % inhibition T4 90' 2.5 / % inhibition T4 180' 2.5: concentration 2.5; for % inhibition T4 10' 5 / % inhibition T4 70' 5 / % inhibition T4 130' 5 / % inhibition T4 40' 5 / % inhibition T4 90' 5 / % inhibition T4 180' 5: concentration 5; for % inhibition T4 10' 10 / % inhibition T4 70' 10 / % inhibition T4 130' 10 / % inhibition T4 40' 10 / % inhibition T4 90' 10 / % inhibition T4 180' 10: concentration 10; for % inhibition T4 70' 2.5 / % inhibition T4 70' 5 / % inhibition T4 70' 10 / % inhibition T4 70' 20 / % inhibition T4 70' 40 / % inhibition T4 70' 80: read at 70'; for % inhibition T4 130' 2.5 / % inhibition T4 130' 5 / % inhibition T4 130' 10 / % inhibition T4 130' 20 / % inhibition T4 130' 40 / % inhibition T4 130' 80: read at 130'; for % inhibition T4 40' 2.5 / % inhibition T4 40' 5 / % inhibition T4 40' 10 / % inhibition T4 40' 20 / % inhibition T4 40' 40 / % inhibition T4 40' 80: read at 40'; for % inhibition T4 90' 2.5 / % inhibition T4 90' 5 / % inhibition T4 90' 10 / % inhibition T4 90' 20 / % inhibition T4 90' 40 / % inhibition T4 90' 80: read at 90'; for % inhibition T4 180' 2.5 / % inhibition T4 180' 5 / % inhibition T4 180' 10 / % inhibition T4 180' 20 / % inhibition T4 180' 40 / % inhibition T4 180' 80: read at 180'
Procedure, shortened: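 IC50 values come from dose-response testing of each compound against T4 DNA polymerase. This B-family polymerase was purified in-house and used as the counter-screen.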

## CCCc1ccc(Oc2coc3cc(OC)ccc3c2=O)cc1 [KU0193249]
DRC-1
  % inhibition T4 10' 2.5: 1.7455%
  % inhibition T4 10' 5: -0.5189%
  % inhibition T4 10' 10: 7.431%
  % inhibition T4 70' 2.5: 0.7287%
  % inhibition T4 70' 5: -0.7228%
  % inhibition T4 70' 10: 6.283%
  % inhibition T4 130' 2.5: -0.4639%
  % inhibition T4 130' 5: -1.759%
  % inhibition T4 130' 10: 5.142%
DRC-1, concentration 20
  % inhibition T4 10' 20: -2.718%
  % inhibition T4 70' 20: -2.8267%
  % inhibition T4 130' 20: -2.066%
DRC-1, concentration 40
  % inhibition T4 10' 40: 4.024%
  % inhibition T4 70' 40: 4.61%
  % inhibition T4 130' 40: 4.723%
DRC-1, concentration 80
  % inhibition T4 10' 80: -14.455%
  % inhibition T4 70' 80: -10.3998%
  % inhibition T4 130' 80: -9.229%
DRC-2
  % inhibition T4 10' 2.5: 9%
  % inhibition T4 10' 5: -2.34%
  % inhibition T4 10' 10: 0.369%
  % inhibition T4 40' 2.5: 9%
  % inhibition T4 40' 5: -2.34%
  % inhibition T4 40' 10: 0.369%
  % inhibition T4 90' 2.5: 8%
  % inhibition T4 90' 5: -2.2%
  % inhibition T4 90' 10: -0.214%
  % inhibition T4 180' 2.5: 1.43%
  % inhibition T4 180' 5: -7%
  % inhibition T4 180' 10: -5%
DRC-2, concentration 20
  % inhibition T4 10' 20: -9%
  % inhibition T4 40' 20: -9%
  % inhibition T4 90' 20: -7%
  % inhibition T4 180' 20: -10%
DRC-2, concentration 40
  % inhibition T4 10' 40: -1.47%
  % inhibition T4 40' 40: -1.47%
  % inhibition T4 90' 40: 0.714%
  % inhibition T4 180' 40: -1.19%
DRC-2, concentration 80
  % inhibition T4 10' 80: -4.57%
  % inhibition T4 40' 80: -4.57%
  % inhibition T4 90' 80: -1.8%
  % inhibition T4 180' 80: -4%

## C#CC(C=CC)OC(=O)c1ccccc1C(=O)O (stereo not drawn) [Molecule 61, CC=CC(OC(=O)c1ccccc1C(=O)O)C#C]
DRC-1
  % inhibition T4 10' 2.5: 9.3785%
  % inhibition T4 10' 5: 11.31%
  % inhibition T4 10' 10: 22.4398%
  % inhibition T4 70' 2.5: 5.999%
  % inhibition T4 70' 5: 5.822%
  % inhibition T4 70' 10: 15.1139%
  % inhibition T4 130' 2.5: 3.358%
  % inhibition T4 130' 5: 2.079%
  % inhibition T4 130' 10: 10.4202%
DRC-1, concentration 20
  % inhibition T4 10' 20: 21.3205%
  % inhibition T4 70' 20: 11.2187%
  % inhibition T4 130' 20: 6.447%
DRC-1, concentration 40
  % inhibition T4 10' 40: 28.2089%
  % inhibition T4 70' 40: 17.6446%
  % inhibition T4 130' 40: 13.4652%
DRC-1, concentration 80
  % inhibition T4 10' 80: 28.2741%
  % inhibition T4 70' 80: 16.7862%
  % inhibition T4 130' 80: 12.4594%
DRC-2
  % inhibition T4 10' 2.5: -4.4%
  % inhibition T4 10' 5: -3%
  % inhibition T4 10' 10: 4%
  % inhibition T4 40' 2.5: -4.37%
  % inhibition T4 40' 5: -3.69%
  % inhibition T4 40' 10: 2%
  % inhibition T4 90' 2.5: -3.79%
  % inhibition T4 90' 5: -6%
  % inhibition T4 90' 10: 0.277%
  % inhibition T4 180' 2.5: -5.62%
  % inhibition T4 180' 5: -11%
  % inhibition T4 180' 10: -7%
DRC-2, concentration 20
  % inhibition T4 10' 20: 6.52%
  % inhibition T4 40' 20: 3.35%
  % inhibition T4 90' 20: 0.217%
  % inhibition T4 180' 20: -5.56%
DRC-2, concentration 40
  % inhibition T4 10' 40: 12%
  % inhibition T4 40' 40: 9%
  % inhibition T4 90' 40: 6%
  % inhibition T4 180' 40: -0.544%
DRC-2, concentration 80
  % inhibition T4 10' 80: 8%
  % inhibition T4 40' 80: 4.65%
  % inhibition T4 90' 80: 0.315%
  % inhibition T4 180' 80: -3.3%

## Cc1cccc2c(C(=O)NC(C)C)cc(N(C)C)nc12 [Molecule 47, CC(NC(=O)c1cc(nc2c1cccc2C)N(C)C)C]
DRC-2, concentration 20
  % inhibition T4 10': 28%
DRC-2, concentration 40
  % inhibition T4 10': 30%
  % inhibition T4 90': 31%
DRC-2, concentration 80
  % inhibition T4 10': 30%
  % inhibition T4 90': 31%
DRC-2, 180', concentration 80
  % inhibition T4 180': 28%
